Laboratory results from US20020086865A1, “Use of growth hormone secretagogues for stimulating or increasing appetite” (priority 2000, published 2002).
Square brackets hold non-standard residues; d marks the D form. Peptide text beside a SMILES is read from it. dTrp(2-Me) = Cc1[nH]c2ccccc2c1C[C@@H](N)C(=O)O; d2Nal = N[C@H](Cc1ccc2ccccc2c1)C(=O)O

Tests used:
free-feeding rats = conditions: intracerebroventricular administration; cited from earlier work
[1] = orally active; cited from earlier work
satiated rats = conditions: s.c.; cited from earlier work
[2] = system: healthy, young male subjects; conditions: 100 mg single oral dose in a solution of water, fasted state; four subjects on active
Experimental: The test compound or placebo was administered orally in a solution of water to the subjects in a fasted state. The doses evaluated were 0.3, 1, 3, 10, 30 and 100 mg of the test compound or placebo. Each participant was studied at only one dose level.

rats = conditions: intracerebroventricular; cited from earlier work
[3] = system: young women with anorexia nervosa; conditions: cited from earlier work

Q: With C[C@H](NC(=O)[C@@H](Cc1ccc2ccccc2c1)NC(=O)[C@@H](C)N)C(=O)N[C@@H](Cc1c[nH]c2ccccc12)C(=O)N[C@H](Cc1ccccc1)C(=O)N[C@@H](CCCCN)C(N)=O [KP-102] (H-[dA][d2Nal]AW[dF]K-NH2) as the molecule, how does the food intake (free-feeding rats) read?
A: increased food intake

Q: For CC(C)(N)C(=O)N[C@H](COCc1ccccc1)C(=O)N1CCC2(CC1)CN(S(C)(=O)=O)c1ccccc12 [MK-677], which diet-induced catabolism [1] is on record?
A: reverses diet-induced catabolism

Q: For Cc1[nH]c2ccccc2c1C[C@@H](NC(=O)[C@@H](N)Cc1cnc[nH]1)C(=O)N[C@@H](C)C(=O)N[C@@H](Cc1c[nH]c2ccccc12)C(=O)N[C@H](Cc1ccccc1)C(=O)N[C@@H](CCCCN)C(N)=O [hexarelin] (H-H[dTrp(2-Me)]AW[dF]K-NH2), which GH release (satiated rats) is on record?
A: dose dependently stimulated

Q: And the feeding behavior (satiated rats)?
A: dose dependently stimulated

Q: For CC(C)(N)C(=O)N[C@H](COCc1ccc(F)cc1F)C(=O)N1CCC2=NN(CC(F)(F)F)C(=O)[C@]2(Cc2ccccn2)C1.O=C(O)C(O)C(O)C(=O)O [test compound, (L)-(+)-tartaric acid salt of 2-amino-N-(1-(R)-(2,4-difluoro-benzyloxymethyl)-2-oxo-2-(3-oxo-3a-(R)-pyridin-2-ylmethyl-2-(2,2,2-trifluoro-ethyl)-2,3,3a,4,6,7-hexahydro-pyrazolo-[4,3-c]pyridin-5-yl)-ethyl)-2-methyl-propionamide], which “subjects who self-reported feeling hungry (case report forms)” value [2] is on record?
A: two of the four subjects

Q: For GHRP-6, which eating (rats) is on record?
A: stimulated eating

Q: And the “plasma growth hormone responses” value (rats)?
A: without affecting plasma growth hormone responses

Q: And the GH release (satiated rats)?
A: dose dependently stimulated

Q: And the feeding behavior (satiated rats)?
A: dose dependently stimulated

Q: Which IGF-1 levels [3] does the source give for “recombinant growth hormone: recombinant growth hormone” here?
A: normalizes IGF-1 levels

Q: What about the body weight [3] of the same molecule?
A: increases body weight

Q: And the eating behavior [3]?
A: improves eating behavior
